The values below come from patent US8653004B2, “Actives-comprising polymer networks, processes for producing them, and their use” (priority 2007, dated 2014).

Converted amounts (≈) assume the structure as drawn.

The nature of the data set: physchem. The class given is physicochemical. As to conditions: water.

Regarding `CCNc1nc(NC(C)(C)C)nc(SC)n1` [terbutryn, N2-tert-butyl-N4-ethyl-6-methylthio-1,3,5-triazine-2,4-diamine], the solubility is about 20 µg/mL (≈ 82.9 µM).

Usually solubility stands for the dissolved amount per volume that the medium holds. Low readings indicate a poorly soluble substance, high ones a readily soluble substance.
